Assay results reported in PubChem BioAssay (NCI).
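Abbreviation: GI50, concentration required for 50% inhibition of growth. Definition used: TGI = concentration required for complete inhibition of growth.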

What was measured:
Assay in all cases: NCI tumour cell line growth inhibition, 384-well format; in the data active = GI50 below about 0.43 µM; inactive = the rest
NCI-H522 lung = system: NCI-H522 lung
UO-31 renal = system: UO-31 renal
NCI-H322M lung = system: NCI-H322M lung
EKVX NSCLC = system: EKVX NSCLC
HCT-116 colon = system: HCT-116 colon
HCC-2998 colon = system: HCC-2998 colon
K-562 leukemia = system: K-562 leukemia
MDA-MB-468 breast = system: MDA-MB-468 breast
MDA-MB-231 breast = system: MDA-MB-231 breast
786-0 renal = system: 786-0 renal
SNB-75 CNS = system: SNB-75 CNS
HOP-92 NSCLC = system: HOP-92 NSCLC
SN12C renal = system: SN12C renal
KM12 colon = system: KM12 colon
SF-539 CNS = system: SF-539 CNS
T-47D breast = system: T-47D breast
COLO 205 colon = system: COLO 205 colon
RPMI-8226 leukemia = system: RPMI-8226 leukemia
MCF7 breast = system: MCF7 breast
SNB-19 CNS = system: SNB-19 CNS
UACC-62 melanoma = system: UACC-62 melanoma
MOLT-4 leukemia = system: MOLT-4 leukemia
ACHN renal = system: ACHN renal
HOP-62 NSCLC = system: HOP-62 NSCLC
OVCAR-3 ovarian = system: OVCAR-3 ovarian
SK-OV-3 ovarian = system: SK-OV-3 ovarian
HS 578T breast = system: HS 578T breast
SK-MEL-28 melanoma = system: SK-MEL-28 melanoma
MDA-MB-435 melanoma = system: MDA-MB-435 melanoma
CAKI-1 renal = system: CAKI-1 renal
HT29 colon = system: HT29 colon
BT-549 breast = system: BT-549 breast
NCI-H226 lung = system: NCI-H226 lung
HCT-15 colon = system: HCT-15 colon
UACC-257 melanoma = system: UACC-257 melanoma
U251 glioblastoma = system: U251 glioblastoma
SK-MEL-5 melanoma = system: SK-MEL-5 melanoma
NCI-H23 lung = system: NCI-H23 lung
M14 melanoma = system: M14 melanoma
SF-268 CNS = system: SF-268 CNS
OVCAR-8 ovarian = system: OVCAR-8 ovarian
CCRF-CEM leukemia = system: CCRF-CEM leukemia
SK-MEL-2 melanoma = system: SK-MEL-2 melanoma
RXF 393 renal = system: RXF 393 renal
DU-145 prostate = system: DU-145 prostate
OVCAR-5 ovarian = system: OVCAR-5 ovarian
SF-295 CNS = system: SF-295 CNS
IGROV1 ovarian = system: IGROV1 ovarian
LOX IMVI melanoma = system: LOX IMVI melanoma
MALME-3M melanoma = system: MALME-3M melanoma
OVCAR-4 ovarian = system: OVCAR-4 ovarian
NCI-H460 NSCLC = system: NCI-H460 NSCLC
HL-60(TB) leukemia = system: HL-60(TB) leukemia
SW-620 colon = system: SW-620 colon
NCI/ADR-RES ovarian = system: NCI/ADR-RES ovarian
A498 renal = system: A498 renal
A549 NSCLC = system: A549 NSCLC
TK-10 renal = system: TK-10 renal
PC-3 prostate = system: PC-3 prostate

CCn1nc(C2CCN(C(=O)CCO)CC2)nc1-c1cnc(N)c(-c2nnc(C(C)(C)C)o2)n1
84.1 µM: TGI (NCI/ADR-RES ovarian)
38.6 µM: TGI (NCI-H522 lung)
12.2 µM: TGI (HL-60(TB) leukemia)
73.7 µM: TGI (NCI-H23 lung)
13.2 µM: TGI (SNB-75 CNS)
77.2 µM: TGI (UO-31 renal)
23.8 µM: TGI (LOX IMVI melanoma)
30 µM: TGI (EKVX NSCLC)
1.81 µM: TGI (IGROV1 ovarian)
8.87 µM: TGI (MOLT-4 leukemia)
0.832 µM: TGI (T-47D breast)
31.8 µM: TGI (HS 578T breast)
30.9 µM: TGI (RPMI-8226 leukemia)
15.7 µM: TGI (RXF 393 renal)
17.1 µM: TGI (MDA-MB-468 breast)
23.9 µM: TGI (COLO 205 colon)
14.8 µM: TGI (SK-OV-3 ovarian)
active: GI50 (T-47D breast) 0.17 µM | GI50 (MCF7 breast) 0.2 µM | GI50 (IGROV1 ovarian) 0.32 µM | GI50 (HL-60(TB) leukemia) 0.377 µM
22.1 µM: TGI (OVCAR-3 ovarian)
32.3 µM: TGI (KM12 colon)
47 µM: TGI (HCC-2998 colon)
54.3 µM: TGI (BT-549 breast)
76.4 µM: TGI (TK-10 renal)
inactive: GI50 (NCI-H522 lung) 15.1 µM | GI50 (UO-31 renal) 4.31 µM | GI50 (NCI-H322M lung) 5 µM | GI50 (EKVX NSCLC) 3.08 µM | GI50 (HCT-116 colon) 23.2 µM | GI50 (HCC-2998 colon) 7.79 µM | GI50 (K-562 leukemia) 17.3 µM | GI50 (MDA-MB-468 breast) 2.8 µM | GI50 (MDA-MB-231 breast) 80.9 µM | GI50 ([…]-0 renal) 7.59 µM | GI50 (SNB-75 CNS) 1.13 µM | GI50 (HOP-92 NSCLC) 3.35 µM | GI50 (SN12C renal) 5.27 µM | GI50 (KM12 colon) 13.3 µM | GI50 (SF-539 CNS) 16.6 µM | GI50 (COLO 205 colon) 6.8 µM | GI50 (RPMI-8226 leukemia) 16.5 µM | GI50 (SNB-19 CNS) 35.2 µM | GI50 (UACC-62 melanoma) 6.81 µM | GI50 (MOLT-4 leukemia) 1.11 µM | GI50 (ACHN renal) 15.5 µM | GI50 (HOP-62 NSCLC) 42.7 µM | GI50 (OVCAR-3 ovarian) 7 µM | GI50 (SK-OV-3 ovarian) 0.599 µM | GI50 (HS 578T breast) 6.89 µM | GI50 (SK-MEL-28 melanoma) 5.59 µM | GI50 (MDA-MB-435 melanoma) 11.3 µM | GI50 (CAKI-1 renal) 4.7 µM | GI50 (HT29 colon) 3.02 µM | GI50 (BT-549 breast) 6.24 µM | GI50 (NCI-H226 lung) 24.6 µM | GI50 (HCT-15 colon) 15.8 µM | GI50 (UACC-257 melanoma) 22.2 µM | GI50 (U251 glioblastoma) 41.7 µM | GI50 (SK-MEL-5 melanoma) 8.62 µM | GI50 (NCI-H23 lung) 16.7 µM | GI50 (M14 melanoma) 16 µM | GI50 (SF-268 CNS) 24.4 µM | GI50 (OVCAR-8 ovarian) 29.8 µM | GI50 (CCRF-CEM leukemia) 6.7 µM | GI50 (SK-MEL-2 melanoma) 17.3 µM | GI50 (RXF 393 renal) 2.42 µM | GI50 (DU-145 prostate) 13.7 µM | GI50 (OVCAR-5 ovarian) 10.7 µM | GI50 (SF-295 CNS) 0.993 µM | GI50 (LOX IMVI melanoma) 10.1 µM | GI50 (MALME-3M melanoma) 7.64 µM | GI50 (OVCAR-4 ovarian) 32.9 µM | GI50 (NCI-H460 NSCLC) 1.19 µM | GI50 (SW-620 colon) 34.4 µM | GI50 (NCI/ADR-RES ovarian) 19.4 µM | GI50 (A498 renal) 18.1 µM | GI50 (A549 NSCLC) 5.24 µM | GI50 (TK-10 renal) 2.71 µM | GI50 (PC-3 prostate) 3.65 µM
100 µM: TGI (DU-145 prostate)
25.5 µM: TGI (HT29 colon)
23.4 µM: TGI (CCRF-CEM leukemia)
> 100 µM: TGI (NCI-H322M lung) | TGI (HCT-116 colon) | TGI (MDA-MB-231 breast) | TGI (786-0 renal) | TGI (HOP-92 NSCLC) | TGI (SN12C renal) | TGI (SF-539 CNS) | TGI (MCF7 breast) | TGI (SNB-19 CNS) | TGI (UACC-62 melanoma) | TGI (ACHN renal) | TGI (HOP-62 NSCLC) | TGI (SK-MEL-28 melanoma) | TGI (MDA-MB-435 melanoma) | TGI (CAKI-1 renal) | TGI (NCI-H226 lung) | TGI (HCT-15 colon) | TGI (UACC-257 melanoma) | TGI (U251 glioblastoma) | TGI (M14 melanoma) | TGI (SF-268 CNS) | TGI (OVCAR-8 ovarian) | TGI (SK-MEL-2 melanoma) | TGI (OVCAR-5 ovarian) | TGI (SF-295 CNS) | TGI (OVCAR-4 ovarian) | TGI (NCI-H460 NSCLC) | TGI (SW-620 colon) | TGI (A498 renal) | TGI (A549 NSCLC) | TGI (PC-3 prostate)
44.7 µM: TGI (K-562 leukemia)
36.9 µM: TGI (SK-MEL-5 melanoma)
59.7 µM: TGI (MALME-3M melanoma)
